Laboratory results published in publication PMC8288134, “Synthesis, potential antitumor activity, cell cycle analysis, and multitarget mechanisms of novel hydrazones incorporating a 4-methylsulfonylbenzene scaffold: a molecular docking study” (Journal of Enzyme Inhibition and Medicinal Chemistry, 2021).
Where two headings read alike, the source gives them in different places.

How the values were obtained:
[1] = tested on: A549/ATCC; assay: NCI antitumor screen (SRB); type: cell-based; details: Homo sapiens; for inhibition at 10 µM: one dose 10 µM, read-out: Growth inhibition percentage (GI%)
[2] = tested on: BT-549; assay: NCI antitumor screen (SRB); type: cell-based; details: Homo sapiens; for inhibition at 10 µM: one dose 10 µM, read-out: Growth inhibition percentage (GI%)
[3] = tested on: SR; assay: NCI antitumor screen (SRB); type: cell-based; details: Homo sapiens; for inhibition at 10 µM: one dose 10 µM, read-out: Growth inhibition percentage (GI%)
[4] = tested on: A498; assay: NCI antitumor screen (SRB); type: cell-based; details: Homo sapiens; for inhibition at 10 µM: one dose 10 µM, read-out: Growth inhibition percentage (GI%)
[5] = tested on: MDA-MB-435; assay: NCI antitumor screen (SRB); type: cell-based; details: Homo sapiens; for inhibition at 10 µM: one dose 10 µM, read-out: Growth inhibition percentage (GI%)
[6] = tested on: MOLT-4; assay: NCI antitumor screen (SRB); type: cell-based; details: Homo sapiens; for inhibition at 10 µM: one dose 10 µM, read-out: Growth inhibition percentage (GI%)
[7] = molecular target: T1, COX-2 (Ovis aries, UniProt P79208); assay: biochemical; details: mean of three determinations; read-out: IC50 COX-2 Inhibition
T1 construct: purchased Cayman Chemical 560101
T1 sequence (P79208 17-603): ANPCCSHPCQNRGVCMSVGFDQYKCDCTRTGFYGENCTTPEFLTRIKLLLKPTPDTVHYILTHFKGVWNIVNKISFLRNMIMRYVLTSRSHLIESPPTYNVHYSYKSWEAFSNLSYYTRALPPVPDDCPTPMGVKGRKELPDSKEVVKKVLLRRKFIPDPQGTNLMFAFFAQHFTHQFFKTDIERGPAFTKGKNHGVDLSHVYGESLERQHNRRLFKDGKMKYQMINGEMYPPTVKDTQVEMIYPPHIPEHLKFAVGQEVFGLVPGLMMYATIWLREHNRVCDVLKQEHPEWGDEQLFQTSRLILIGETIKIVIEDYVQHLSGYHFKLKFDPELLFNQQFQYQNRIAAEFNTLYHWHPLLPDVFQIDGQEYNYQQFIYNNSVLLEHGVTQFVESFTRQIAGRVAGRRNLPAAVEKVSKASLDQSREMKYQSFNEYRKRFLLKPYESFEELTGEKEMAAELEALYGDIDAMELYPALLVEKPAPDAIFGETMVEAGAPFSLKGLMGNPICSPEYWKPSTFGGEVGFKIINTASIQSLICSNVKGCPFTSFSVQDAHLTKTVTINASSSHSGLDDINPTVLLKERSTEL
Description: had been previously attached to the well. The plate was washed to remove any unbound reagents, and then Ellman’s reagent, containing the substrate of acetylcholine esterase, was added to the well. This enzymatic reaction produced a distinct yellow color that was absorbed in 410 nm. The intensity of the color, determined spectrophotometrically, was proportional to the amount of PG tracer bound to the well, which was inversely proportional to PGs present in the well during the incubation: Absorbance ∝ [Bound PG Tracer] a1/PGs. Percent inhibition was calculated by comparing the treated compound to various control incubations. The test compound […]
inhibition response curve (duplicate determinations). […]

[8] = tested on: OVCAR-3; assay: NCI antitumor screen (SRB); type: cell-based; details: Homo sapiens; for inhibition at 10 µM: one dose 10 µM, read-out: Growth inhibition percentage (GI%)
[9] = tested on: SF-268; assay: NCI antitumor screen (SRB); type: cell-based; details: Homo sapiens; for inhibition at 10 µM: one dose 10 µM, read-out: Growth inhibition percentage (GI%)
[10] = tested on: NCI-H23; assay: NCI antitumor screen (SRB); type: cell-based; details: Homo sapiens; for inhibition at 10 µM: one dose 10 µM, read-out: Growth inhibition percentage (GI%)
[11] = tested on: M14; assay: NCI antitumor screen (SRB); type: cell-based; details: Homo sapiens; for inhibition at 10 µM: one dose 10 µM, read-out: Growth inhibition percentage (GI%)
[12] = tested on: MCF7; assay: NCI antitumor screen (SRB); type: cell-based; details: Homo sapiens; for inhibition at 10 µM: one dose 10 µM, read-out: Growth inhibition percentage (GI%)
[13] = tested on: DU-145; assay: NCI antitumor screen (SRB); type: cell-based; details: Homo sapiens; for inhibition at 10 µM: one dose 10 µM, read-out: Growth inhibition percentage (GI%)
[14] = tested on: SN12C; assay: NCI antitumor screen (SRB); type: cell-based; details: Homo sapiens; for inhibition at 10 µM: one dose 10 µM, read-out: Growth inhibition percentage (GI%)
[15] = tested on: OVCAR-8; assay: NCI antitumor screen (SRB); type: cell-based; details: Homo sapiens; for inhibition at 10 µM: one dose 10 µM, read-out: Growth inhibition percentage (GI%)
[16] = tested on: HCC-2998; assay: NCI antitumor screen (SRB); type: cell-based; details: Homo sapiens; for inhibition at 10 µM: one dose 10 µM, read-out: Growth inhibition percentage (GI%)
[17] = tested on: SNB-19; assay: NCI antitumor screen (SRB); type: cell-based; details: Homo sapiens; for inhibition at 10 µM: one dose 10 µM, read-out: Growth inhibition percentage (GI%)
[18] = tested on: 786-0; assay: NCI antitumor screen (SRB); type: cell-based; details: Homo sapiens; for inhibition at 10 µM: one dose 10 µM, read-out: Growth inhibition percentage (GI%)
[19] = tested on: SK-MEL-5; assay: NCI antitumor screen (SRB); type: cell-based, human; details: for inhibition at 10 µM: read-out: Growth inhibition percentage (GI%)
[20] = Homo sapiens, SK-MEL-5, one dose 10 µM
[21] = five concentrations 0.01-100 µM

SMILES	inhibition at 10 µM [1] [%]	inhibition at 10 µM [2] [%]	inhibition at 10 µM [3] [%]	inhibition at 10 µM [4] [%]	inhibition at 10 µM [5] [%]	inhibition at 10 µM [6] [%]	IC50 [7] [nM]	inhibition at 10 µM [8] [%]	inhibition at 10 µM [9] [%]	inhibition at 10 µM [10] [%]	inhibition at 10 µM [11] [%]	inhibition at 10 µM [12] [%]	inhibition at 10 µM [13] [%]	inhibition at 10 µM [14] [%]	inhibition at 10 µM [15] [%]	inhibition at 10 µM [16] [%]	inhibition at 10 µM [17] [%]	inhibition at 10 µM [18] [%]	inhibition at 10 µM [19, 20] [%]	further results
CS(=O)(=O)c1ccc(C(=O)NN=Cc2cccc3ccccc23)cc1 [Compound 6, 4-(Methylsulfonyl)-N'-(naphthalen-1-ylmethylene)benzohydrazide]	58.7	12.4	67.5	30.9	82.9	53.2	36300 ± 2550	32.2	14.3	10.4	33.2	55.1	11.2	12.6	16.2	15.5	20.2	< 10	32.8	–
CCN(CC)c1ccc(/C=N/NC(=O)c2ccc(S(C)(=O)=O)cc2)c(O)c1 [Compound 20]	87.5	69.3	91	54.7	62.8	97.3	6940 ± 410	66.6	78.2	67.2	96.6	91.2	75.5	68.8	83.2	60.4	68	84.6	–	GI50 [1, 21]: 402 nM; GI50 [2, 21]: 346 nM; GI50 [3, 21]: 63 nM; GI50 [4, 21]: 9810 nM; GI50 [5, 21]: 623 nM; GI50 [6, 21]: 164 nM; GI50 [8, 21]: 125 nM; GI50 [9, 21]: 78.9 nM; GI50 [10, 21]: 446 nM; GI50 [11, 21]: 171 nM; GI50 [12, 21]: 253 nM; GI50 [13, 21]: 144 nM; GI50 [14, 21]: 354 nM; GI50 [15, 21]: 250 nM; GI50 [16, 21]: 301 nM; GI50 [17, 21]: 428 nM; GI50 [18, 21]: 182 nM; inhibition at 10 µM ([19]; Homo sapiens, SK-MEL-5, SK-MEL-5, one dose 10 µM): 100%; GI50 ([19]; Homo sapiens, SK-MEL-5, five concentrations 0.01-100 µM): 223 nM; Growth inhibition percentage (GI%) ([19]; SK-MEL-5, one dose 10 µM): >100%
Cc1ccc(C=NNC(=O)c2ccc(S(C)(=O)=O)cc2)cc1 [Compound 9, N'-(4-Methylbenzylidene)-4-(methylsulfonyl)benzohydrazide]	12.7	< 10	43.8	17.9	47.5	22.6	2970 ± 70	< 10	< 10	< 10	< 10	21.4	< 10	< 10	< 10	< 10	< 10	< 10	13.5	–
CS(=O)(=O)c1ccc(C(=O)N/N=C/c2ccccc2O)cc1 [Compound 16]	61.2	47	79.6	24.8	40.3	90.8	82400 ± 3610	77.2	61.6	45.2	67.5	77.5	59.6	41.4	72.1	52.7	54.6	67	67.8	–
